Experimental data taken from publication PMC6235002, “Born to sense: biophysical analyses of the oxygen sensing prolyl hydroxylase from the simplest animal Trichoplax adhaerens” (Hypoxia, 2018).
Entries after “also recorded” stand apart in the source; their conditions may differ. Where two headings read alike, the source gives them in different places.

B1: TaPHD^64-300 (Trichoplax adhaerens) (protein)
chain: MDERRPKIGCDKTGLALEKTWQLQKNERLSNMVVNQLNTNGFCIINNFLGSSCSTEVLQQVLNLYQSGVFSNGQLARNVSVNRIRGDKIAWIGGDERGCEAIKYLSSCVDSLISRCNGRLGNYMITGRTKCMVACYPGSGLGYIRHIDNPNRDGRCVTVLYYLNPNWNSQDCGGQLWLYPNNENKVVKIDPIFDRLLLFWSDRRNPHEVKPAYAMRYAITLWYFDEKERALSSQNGT

Legend:
[1] = molecular target: T1, TaPHD^64-300 (Trichoplax adhaerens, UniProt I6QVT6); settings: TaPHD with natural substrate (500 µM); 20 µM enzyme, 125 µM Fe(II), 1 mM ascorbate, 400 µM 2OG, 50 mM Tris-D11 pH 7.5; ^1H NMR
[2] = molecular target: T1, TaPHD^64-300; assay: Steady-state O2-dependence of TaPHD (MALDI-TOF-MS); assay type: biochemical; settings: TaPHD^64-300 with TaODD 25mer
Description: (§1) Notes: (A) Sequence alignment of TaHIFa, HsHIFa, and substrates of PHD-like enzymes in Dictyostelium discoideum (DdSkp1) and Pseudomonas putida (PpEF-Tu). […] Peptide hydroxylation was analyzed by MALDI-MS; the apparent non-enzymatic Met oxidation was subtracted. Data were fitted with the Michaelis-Menten equation using GraphPad Prism® (errors are indicated as standard deviations, n=3).
In order for the PHDs to act as hypoxia sensors in cells, their activity must be limited by oxygen availability. […] In order to study the O2 dependence of the TaPHD-catalyzed reaction, steady-state kinetics, using reported experimental conditions for HsPHD2;[29] were conducted. TaPHD^64-300 was reacted with its peptidic substrate in sealed glass-vials under varied oxygen concentrations,[29] the initial rates of TaODD 25mer hydroxylation were determined by MALDI–TOF-MS (Figure 2F and G).

[3] = test system: HsPHD2; settings: read-out: Km (O2); cited from earlier work
[4] = molecular target: T1, TaPHD^64-300; assay: MALDI-TOF-MS peptide hydroxylation steady-state kinetics, TaPHD^64-300; assay type: biochemical; settings: for Km / kcat (peptide substrate): peptide varied, 3.5–7.0 µM enzyme, 50 µM (NH4)2Fe(II)(SO4)2, 4 mM ascorbate, 300 µM 2OG; for Km: 50 mM Tris pH 7.5, Michaelis-Menten fit, ± SD, n=3, read-out: Km (peptide substrate); for kcat (peptide substrate): 50 mM Tris pH 7.5, ± SD, n=3
Description: as §1

[5] = molecular target: T1, TaPHD^64-300; settings: relative to TaODD 25mer and CODD 19mer; cited from earlier work
From the text: The HIF system in T. adhaerens is apparently markedly simpler than in humans because it contains only one PHD (TaPHD), and one HIFα isoform with a single ODD (TaODD, Figure 1A).[16] […] To further investigate the substrate preferences of TaPHD^64–300, its affini ...

[6] = test system: HsPHD2 R396T; settings: HsPHD2 R396T variant; Figure S4, reference not given; cited from earlier work
From the text: (§2) In both the TaPHD.TaODD and HsPHD2.CODD[34] structures, a salt-bridge between an arginine residue in the C-terminal α4-helix and an aspartate residue in the C-terminus of the respective peptide (R292TaPHD/D494TaODD, R396HsPHD2/D571HsHIF1α CODD) is formed (Figure S4). However, this salt-bridge is not present in the HsPHD2.NODD complex structure, where the HsHIF1α NODD peptide is positioned further from the C-terminal helix and interacts with the C-terminal region of HsPHD2 via hydrophobic contacts. Studies with the TaODD and HsPHD2 variants, including with HsPHD2 P317RHsPHD2 and R396THsPHD2, wh ...

[7] = molecular target: T1, TaPHD^64-300; assay: 1D CLIP HSQC NMR binding studies with [^13C]-prolyl-labelled reporter ODD peptides; settings: 1:1 enzyme:ODD, 50 µM [^13C]-proline-labelled peptide, 50 µM TaPHD, Zn(II), 50 µM 2OG, 50 mM Tris-D11 pH 7.5, 10% D2O/90% H2O, n=3
Description: as §1
To more directly investigate the extent to which TaPHD^64-300 can bind HsHIF1α NODD and CODD, we performed 1D CLIP HSQC NMR binding studies with HsHIF1α CODD and HsHIF1α NODD peptides labeled with [^13C] at the target prolyl residues which undergo hydroxylation during catalysis (Figure 2C).

[8] = molecular target: T2, HsPHD2^181-426 (Homo sapiens, UniProt Q9GZT9); design: method as in PMID 25120187; settings: previous studies, read-out: Km (peptide substrate), previous studies; cited from earlier work
T2 construct: compared to the truncated human PHD isoform 2 (HsPHD2^181-426)
T2 sequence (Q9GZT9 181-426): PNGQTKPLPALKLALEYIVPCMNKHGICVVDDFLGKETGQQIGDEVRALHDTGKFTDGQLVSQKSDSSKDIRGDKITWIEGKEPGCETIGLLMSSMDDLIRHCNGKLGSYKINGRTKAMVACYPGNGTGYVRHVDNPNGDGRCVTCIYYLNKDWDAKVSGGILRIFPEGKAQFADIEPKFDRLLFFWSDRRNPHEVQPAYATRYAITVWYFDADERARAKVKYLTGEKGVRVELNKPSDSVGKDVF

[9] = molecular target: T2, HsPHD2^181-426; assay: MALDI-TOF-MS peptide hydroxylation steady-state kinetics, HsPHD2^181-426; assay type: biochemical; settings: peptide varied, 3.5–7.0 µM enzyme, 50 µM (NH4)2Fe(II)(SO4)2, 4 mM ascorbate, 300 µM 2OG; for Km: 50 mM Tris pH 7.5, Michaelis-Menten fit, ± SD, n=3, read-out: Km (peptide substrate); for kcat (peptide substrate): 50 mM Tris pH 7.5, ± SD, n=3
Description: as §1

[10] = test system: HsPHD2 P317R; settings: HsPHD2 P317R variant; Figure S4, reference not given; cited from earlier work
From the text: as §2

[11] = substrate: O=C(O)CCC(=O)C(=O)O; assay: MALDI-TOF-MS peptide hydroxylation steady-state kinetics, TaPHD^64-300; assay type: biochemical, Trichoplax adhaerens; settings: other: TaPHD^64-300, 2OG varied, 100 µM peptide, 50 µM (NH4)2Fe(II)(SO4)2, 4 mM ascorbate, 50 mM Tris pH 7.5, ± SD, n=3, 37.0 °C

Row | Molecule | hydroxylation by TaPHD (in words) [4] | Km [4] [µM] | kcat (peptide substrate) [4] [s⁻¹] | Km [9] [µM] | kcat (peptide substrate) [9] [s⁻¹] | other results
1 | O=C(O)CCC(=O)C(=O)O [2OG, 2-oxoglutarate] | – | – | – | – | – | 2OG decarboxylation in presence of substrate [1]: strongly increased in presence of substrate
2 | O=O [O2, oxygen] | – | – | – | – | – | Km ([2]; 4 µM enzyme, 100 µM TaODD, 50 µM Fe(II), 300 µM 2OG, 4 mM ascorbate, 50 mM Tris pH 7.5, 37°C, varied % O2, n=3): > 400 µM; O2 saturation (in words) ([2]; at 60% O2 level, 37°C, pH 7.5): No saturation of O2 was reached; Km [3]: > 400 µM
3 | DALTLLAPAAGDTIISLDF-NH2 [HsHIF1α NODD 19mer, 19mer peptide of the human HIF1α N-terminal ODD] | not turned over above background level | – | – | – | – | hydroxylation by TaPHD, earlier report (in words) [5]: hydroxylated less efficiently; ODD selectivity of HsPHD2 R396T (in words) [6]: NODD
4 | DLDLEMLAPYIPMDDDFQL-NH2 [HsHIF1α CODD 19mer, 19mer peptide of the human HIF1α C-terminal ODD] | efficiently catalyzes the hydroxylation | 15.1 ± 2.2 | 0.012 ± 0.001 | 10.8 ± 1.9 | 0.027 ± 0.001 | binding to TaPHD (in words) [7]: higher binding affinity of TaPHD for HsHIF1α CODD over NODD; also recorded: apparently completely bound; Km [8]: 9 ± 3 µM; ODD selectivity of HsPHD2 P317R (in words) [10]: selective for CODD
5 | PINEKEDYDDLAPFVPPPSFDNRLY-NH2 [TaODD 25mer, 25mer peptide of the single ODD of T. adhaerens HIFα, natural substrate of TaPHD] | efficiently catalyzes the hydroxylation | 11.5 ± 1.8 | 0.026 ± 0.001 | 40.5 ± 4.9 | 0.035 ± 0.002 | –
6 | B1 | – | – | – | – | – | Km [11]: 1.9 ± 0.3 µM
